Values quoted from earlier work in patent publication US9212386B2, “Enzymatic cleavage based lateral flow assays” (Rapid Pathogen Screening, Inc., priority 2011, dated 2015).
*: point of attachment. FITC = O=C1OC2(c3ccc(O)cc3Oc3cc(O)ccc32)c2ccc(NC(=S)*)cc21; Ahx = NCCCCCC(=O)O

Columns and labels:
[1] = tested on: Bacterial Enzyme Targets (bacterial supernatants of tested micro-organisms); conditions: for In vitro Cleavage Activity (using FRET): micro-organisms whose enzymes cleave the peptide
[2] = tested on: Bacterial Enzyme Targets (tested micro-organisms); conditions: micro-organisms whose enzymes cleave the peptide

| Substance | In vitro Cleavage Activity (using FRET) [1] | Ex vivo Cleavage activity (using FRET) [2] | selectivity of peptide cleavage [1] |
| --- | --- | --- | --- |
| FITC-Ahx-Gly-Gly-Gly-Gly-Lys-DABCYL ({FITC-Ahx}-GGGGK-{DABCYL}) | P. aeruginosa | P. aeruginosa | – |
| FITC-Ahx-Leu-DVal-Lys-DABCYL [BikKam 6] | B. anthracis (moderate) | – | – |
| FITC-Ahx-Leu-DLeu-Lys-DABCYL [BikKam 1] | B. anthracis | – | highly selective for B. anthracis |
